Experimental data taken from patent US20130084614A1, “METHODS OF REMOVING INHIBITORS FROM CELLULOSIC BIOMASS AND PRODUCING ALCOHOLS” (3M INNOVATIVE PROPERTIES COMPANY, priority 2010, published 2013).
Where a name gives a salt, the structure may show the parent alone. Read-outs that look alike come from different tables or passages of the source.

What was measured:
[1] = Confirmatory laboratory extraction of a synthetic inhibitor/sugar mixture; format: physicochemical; details: 5 mL synthetic solution + 5 mL solvent, 20° C., HPLC
Description: In order to define a standardized method of comparing solvents, a new parameter called extraction yield was created. Extraction yield is a ratio of the concentration of a species in the extract to the concentration of that species in the feed. […].
Another parameter, the extraction score, was defined in order to rank overall inhibitor removal performance. Each extraction yield of inhibitors and sugars was multiplied by a weighting factor determined by the importance of removing or retaining the particular compound in the feed. The resulting numbers were then summed to calculate the extraction score.
The confirmatory extraction of a synthetic inhibitor/sugar mixture was next carried out using inhibitors and sugars to mimic the conditions in acid-pretreated cellulosic fermentation feed. The synthetic solutions contained 1 g/L each of formic acid, lactic acid, acetic acid, furfural, HMF and vanillin as well as 20 g/L of glucose and 60 g/L of xylose. Five mL of this synthetic solution and 5 mL of solvent were added to a test tube and the test tubes were shaken in a Lab Line Instruments (Mumbai, India) “MULTI-WRIST SHAKER” at a setting of 8 for 10 min at 20° C. The mixture was allowed to settle overnight to phase separate completely. Inhibitor concentrations in each phase were analyzed by an Agilent Technologies (Santa Clara, Calif.) 1100 HPLC system consisting of a quaternary gradient pump, autosampler, heated column compartment, and diode array absorbance detector. Gradient elution was done on a YMC Company Ltd. (Kyoto, Japan) “YMC Carotenoid S-5” (C30) column with 0.05% phosphoric acid and a solvent ramp of 0% acetonitrile/100% water to 90% acetonitrile/10% water and back over 32.5 minutes. Based on the measured concentration of each inhibitor and sugar, extraction yields and scores were calculated and shown in Table 1 and reported as “laboratory extraction yield” and “laboratory extraction score”; (see footnotes 2 and 3).

E. Coli, FBR-5 strain = assay: Fermentation of extracted C5 fraction, sugar and ethanol by HPLC; format: cell-based, Escherichia coli
[2] = cited from earlier work
[3] = CE2 liquid/liquid solvent extraction (not membrane), 0 hrs
[4] = CE2 liquid/liquid solvent extraction (not membrane), 24 hrs
[5] = EX4 multilayer cross-flow MSE, 0 hrs
[6] = EX4 multilayer cross-flow MSE, 24 hrs
[7] = EX4 multilayer cross-flow MSE, 48 hrs
[8] = IUPAC-NIST Solubility Data Series / Yaws' Handbook

| laboratory extraction yield, Acetic acid [1] | laboratory extraction yield, Formic acid [1] | laboratory extraction yield, Furfural [1] | laboratory extraction yield, HMF [1] | laboratory extraction yield, Lactic acid [1] | laboratory extraction yield, Vanillin [1] | Compound | Water Solubility ([2]; literature values) [g/100 mL] | other results |
| --- | --- | --- | --- | --- | --- | --- | --- | --- |
| 0.000^3 | 0.020^3 | 0.593^3 | 0.200^3 | 0.050^3 | 0.903^3 | CCCCCCCCCCCCO [1-dodecanol] | – | – |
| 0.361^3 | 0.239^3 | 0.728^3 | 0.360^3 | 0.180^3 | 0.931^3 | CCCCCCCCO [1-octanol] | 0.11 | – |
| 0.301^3 | 0.180^3 | 0.593^3 | 0.220^3 | 0.070^3 | 0.851^3 | CC(C)CC(O)CC(C)C [2,6-dimethyl-4-heptanol] | 0.045 | – |
| 0.352^3 | 0.213^3 | 0.669^3 | 0.337^3 | 0.112^3 | 0.918^3 | CCCCC(CC)CO (stereo not drawn) [2-ethyl-1-hexanol] | – | – |
| – | – | – | – | – | – | CCCCC(C)O (stereo not drawn) [2-hexanol] | 0.35 | – |
| – | – | – | – | – | – | CCCCCCCC(C)=O [2-nonanone] | 0.050 | – |
| 0.397^3 | 0.280^3 | 0.687^3 | 0.394^3 | 0.155^3 | 0.937^3 | CCCCCCC(C)O (stereo not drawn) [2-octanol] | 0.11 | – |
| 0.321^3 | 0.130^3 | 0.895^3 | 0.310^3 | 0.030^3 | 0.931^3 | CCCCCCC(=O)CC [3-nonanone] | 0.010 | – |
| 0.351^3 | 0.234^3 | 0.917^3 | 0.647^3 | 0.137^3 | 0.700^3 | CC(=O)c1ccccc1 [Acetophenone] | 0.10 | – |
| – | – | – | – | – | – | CCCCNCCCC [Dibutylamine] | 0.35 | – |
| – | – | – | – | – | – | CCCCCCCC/C=C\CCCCCCCCO [Oleyl alcohol] | 0.018 | – |
| – | – | – | – | – | – | CCCCCCCCN(CCCCCCCC)CCCCCCCC [Trioctylamine] | 0.10 | – |
| – | – | – | – | – | – | C1CCCCC1 [cyclohexane] | 0.0017 | – |
| – | – | – | – | – | – | C1CCC2CCCCC2C1 (stereo not drawn) [decahydronapthalene] | 0.002 | – |
| – | – | – | – | – | – | CCCCOC(=O)/C=C\C(=O)OCCCC [dibutyl maleate] | – | Ethanol (E. Coli, FBR-5 strain; [3]): 0 g/L; Sugar (E. Coli, FBR-5 strain; [3]): 45 g/L; Ethanol (E. Coli, FBR-5 strain; [4]): 20 g/L; Sugar (E. Coli, FBR-5 strain; [4]): 1 g/L; Ethanol (E. Coli, FBR-5 strain; EX3 single layer MSE, 0 hrs): 0 g/L; Sugar (E. Coli, FBR-5 strain; EX3 single layer MSE, 0 hrs): 51 g/L; Ethanol (E. Coli, FBR-5 strain; EX3 single layer MSE, 24 hrs): 19 g/L; Sugar (E. Coli, FBR-5 strain; EX3 single layer MSE, 24 hrs): 2 g/L |
| – | – | – | – | – | – | CCOCC [diethyl ether, reference compound] | – | Water Solubility [2, 8]: 6.9 grams per 100 mL |
| – | – | – | – | – | – | CCOC(C)=O [ethyl acetate, reference compound] | – | Water Solubility [2, 8]: 8.3 grams per 100 mL |
| 0.221^3 | 0.160^3 | 0.937^3 | 0.360^3 | 0.050^3 | 1.001^3 | CCCC(=O)OCC [ethyl butyrate] | 0.50 | – |
| – | – | – | – | – | – | CC(C)OC(C)C [isopropyl ether] | 0.20 | – |
| – | – | – | – | – | – | CCCCCCCCCC [n-decane] | 0.10 | – |
| – | – | – | – | – | – | CCCCCCCCCCCC [n-dodecane] | 0.10 | – |
| – | – | – | – | – | – | CCCCCC [n-hexane] | 0.10 | – |
| – | – | – | – | – | – | CCCCCCCCCCCCCC [n-tetradecane] | 0.10 | – |
| – | – | – | – | – | – | CCCN(CCC)CCC [tripropylamine] | 0.10 | – |

| Compound | laboratory extraction yield, Acetic acid [1] | laboratory extraction yield, Formic acid [1] | laboratory extraction yield, Furfural [1] | laboratory extraction yield, HMF [1] | laboratory extraction yield, Lactic acid [1] | laboratory extraction yield, Vanillin [1] | Water Solubility ([2]; literature values) [g/100 mL] | other results |
| --- | --- | --- | --- | --- | --- | --- | --- | --- |
| CCCCCCCCCCO [1-decanol] | 0.281^3 | 0.180^3 | 0.666^3 | 0.280^3 | 0.120^3 | 0.911^3 | 0.10 | Ethanol (E. Coli, FBR-5 strain; [3]): 0 g/L; Sugar (E. Coli, FBR-5 strain; [3]): 48 g/L; Ethanol (E. Coli, FBR-5 strain; [4]): 23 g/L; Sugar (E. Coli, FBR-5 strain; [4]): 1 g/L; Ethanol (E. Coli, FBR-5 strain; EX3 single layer MSE, 0 hrs): 0 g/L; Sugar (E. Coli, FBR-5 strain; EX3 single layer MSE, 0 hrs): 48 g/L; Ethanol (E. Coli, FBR-5 strain; EX3 single layer MSE, 24 hrs): 20 g/L; Sugar (E. Coli, FBR-5 strain; EX3 single layer MSE, 24 hrs): 3 g/L; Ethanol (E. Coli, FBR-5 strain; [5]): 0 g/L; Sugar (E. Coli, FBR-5 strain; [5]): 50 g/L; Ethanol (E. Coli, FBR-5 strain; [6]): 12 g/L; Sugar (E. Coli, FBR-5 strain; [6]): 30 g/L; Ethanol (E. Coli, FBR-5 strain; [7]): 18 g/L; Sugar (E. Coli, FBR-5 strain; [7]): 12 g/L |
| O=Cc1ccccc1 [benzaldehyde] | 0.301^3 | 0.200^3 | 1.114^3 | 0.841^3 | 0.070^3 | 1.392^3 | 0.01 | – |
